Molecular target: Tyrosine-protein kinase ABL1 (Homo sapiens, UniProt P00519)
Experiment: Biochemical Kinase Assay
Procedure: Reagents and materials: ABL (ThermoFisher, Cat. No. PV3585), ABL T315I(Thermo Fisher, Cat. No. PR7429B), Ret (Carna, Cat. No. 08-159-10 ug), RETV804M, Active (Signalchem, Cat. No. R02-12GG), ATP (Sigma, Cat. No. A7699-1G), DMSO (Sigma, Cat. No. D2650), 96-well plate (Corning, Cat. No. 3365), 384-well plate (Greiner, Cat. No. 784076), buffer solution (Thermo Fisher, Cat. No. PR4876B). Specific Assay Method: Compound formulation: The test compounds were dissolved in DMSO to prepare a 20 mM stock solution. Before use, the compounds were diluted in DMSO to 0.1 mM, and diluted into 11 concentrations with a 3-fold gradient. When addition, dilutions of 4-fold final concentration were then made with buffer solution. Kinase assay method: After preparing the buffer, the enzyme was mixed with pre-formulated and diluted compounds of different concentrations in duplicate for each concentration, and placed at room temperature for 30 minutes. The corresponding substrate and ATP were added thereto,and reacted at room temperature for 60 minutes (both a negative and a positive control were set). After the reaction, antibody was added for detection, Envision detection was carried out after 60 minutes incubation at room temperature, and data was collected. Data analysis and fitting were made according to XLfit5 software.

Chain of Tyrosine-protein kinase ABL1 (P00519 whole entry): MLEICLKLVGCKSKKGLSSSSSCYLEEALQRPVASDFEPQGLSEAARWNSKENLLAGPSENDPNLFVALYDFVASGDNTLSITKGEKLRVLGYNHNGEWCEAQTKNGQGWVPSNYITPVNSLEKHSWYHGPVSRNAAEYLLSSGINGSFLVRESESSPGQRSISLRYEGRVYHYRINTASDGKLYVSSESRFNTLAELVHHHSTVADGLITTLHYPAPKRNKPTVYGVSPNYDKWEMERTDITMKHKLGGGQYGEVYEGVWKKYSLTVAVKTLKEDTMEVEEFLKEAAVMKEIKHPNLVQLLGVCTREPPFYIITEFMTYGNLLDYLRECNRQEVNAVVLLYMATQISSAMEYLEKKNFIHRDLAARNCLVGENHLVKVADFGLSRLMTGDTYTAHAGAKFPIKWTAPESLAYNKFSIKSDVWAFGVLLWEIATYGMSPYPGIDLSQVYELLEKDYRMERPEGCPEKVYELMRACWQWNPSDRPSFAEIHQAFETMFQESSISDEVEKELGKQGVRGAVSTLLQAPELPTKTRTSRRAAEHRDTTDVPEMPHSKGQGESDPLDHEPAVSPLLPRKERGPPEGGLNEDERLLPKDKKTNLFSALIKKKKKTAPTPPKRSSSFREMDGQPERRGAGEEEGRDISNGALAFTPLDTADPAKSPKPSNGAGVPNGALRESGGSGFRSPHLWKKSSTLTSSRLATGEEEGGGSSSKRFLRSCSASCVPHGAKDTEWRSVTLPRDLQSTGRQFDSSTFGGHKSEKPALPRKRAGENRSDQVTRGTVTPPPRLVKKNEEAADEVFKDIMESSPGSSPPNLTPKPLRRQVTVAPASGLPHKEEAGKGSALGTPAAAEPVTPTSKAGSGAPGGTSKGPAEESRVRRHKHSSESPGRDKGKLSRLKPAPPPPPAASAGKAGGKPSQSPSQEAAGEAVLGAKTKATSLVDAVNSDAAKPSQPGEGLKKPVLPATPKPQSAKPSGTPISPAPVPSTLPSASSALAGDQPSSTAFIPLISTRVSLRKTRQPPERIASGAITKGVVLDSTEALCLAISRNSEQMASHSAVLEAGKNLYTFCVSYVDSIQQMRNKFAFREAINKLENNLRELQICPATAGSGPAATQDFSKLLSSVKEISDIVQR

IC50 [nM]	Compound
82.9	Cc1ccc(NC(=O)Nc2ccc(Cl)c(C(F)(F)F)c2)cc1C#Cc1cnc2c(Nc3cnn(C)c3)ccnn12 [US11746110, Example 16]
32.1	Cc1ccc(NC(=O)Nc2ccc(Cl)c(C(F)(F)F)c2)cc1C#Cc1cnc2c(Nc3cnn(C)c3)nccn12 [US11746110, Example 7]
